Experimental data published in paper PMC6125145, “Mitochondrial Supercomplexes Do Not Enhance Catalysis by Quinone Channeling” (Cell Metabolism, 2018).

Columns and labels:
Assay type in all cases: biochemical
[1] = biological target: T1, complex I (CI, NADH:ubiquinone oxidoreductase) (Bos taurus, UniProt P03887+P17694+P42026); assay: reverse electron transfer (NAD+ reduction) in bovine heart SMPs, NADH absorbance; details: RET assay: 1 mM NAD+, 10 mM succinate, 1 mM MgATP, 50 μg/mL SMPs, pH 7.5, 32 °C, anaerobic; RET direction only, NADH oxidation not inhibited; RET also needs complex II
T1 construct: gene NDUFS2; native enzyme in coupled submitochondrial particles (inverted inner-membrane vesicles) from bovine heart mitochondria; in supercomplexes; with NADH-ubiquinone oxidoreductase 75 kDa subunit, mitochondrial; NADH dehydrogenase [ubiquinone] flavoprotein 1, mitochondrial; NADH dehydrogenase [ubiquinone] flavoprotein 2, mitochondrial; NADH dehydrogenase [ubiquinone] iron-sulfur protein 3, mitochondrial; NADH dehydrogenase [ubiquinone] iron-sulfur protein 8, mitochondrial; NADH-ubiquinone oxidoreductase chain 2; NADH-ubiquinone oxidoreductase chain 3; NADH-ubiquinone oxidoreductase chain 4; NADH-ubiquinone oxidoreductase chain 4L; NADH-ubiquinone oxidoreductase chain 5; NADH-ubiquinone oxidoreductase chain 6
T1 sequence (P17694 34-463): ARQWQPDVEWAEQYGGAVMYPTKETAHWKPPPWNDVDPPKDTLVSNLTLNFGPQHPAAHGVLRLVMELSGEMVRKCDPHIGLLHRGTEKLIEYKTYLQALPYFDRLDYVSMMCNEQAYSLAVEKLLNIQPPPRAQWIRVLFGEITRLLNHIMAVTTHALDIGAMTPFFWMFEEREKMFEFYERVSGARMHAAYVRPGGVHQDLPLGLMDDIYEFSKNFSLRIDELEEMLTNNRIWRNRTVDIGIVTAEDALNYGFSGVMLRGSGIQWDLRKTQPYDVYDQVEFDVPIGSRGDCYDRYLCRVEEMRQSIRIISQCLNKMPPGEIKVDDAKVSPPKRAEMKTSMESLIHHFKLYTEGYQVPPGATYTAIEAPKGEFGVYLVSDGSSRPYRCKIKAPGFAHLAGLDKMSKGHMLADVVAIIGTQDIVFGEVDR
T1 sequence (P03887 whole entry): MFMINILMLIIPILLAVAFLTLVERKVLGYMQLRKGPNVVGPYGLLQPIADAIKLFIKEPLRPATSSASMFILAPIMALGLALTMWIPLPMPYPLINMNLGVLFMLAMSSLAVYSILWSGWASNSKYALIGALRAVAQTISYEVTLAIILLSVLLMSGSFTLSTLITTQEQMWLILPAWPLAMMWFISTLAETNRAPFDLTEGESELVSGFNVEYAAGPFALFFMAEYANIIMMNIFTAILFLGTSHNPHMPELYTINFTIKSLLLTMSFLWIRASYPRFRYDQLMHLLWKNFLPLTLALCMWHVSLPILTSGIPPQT
T1 sequence (P42026 38-216): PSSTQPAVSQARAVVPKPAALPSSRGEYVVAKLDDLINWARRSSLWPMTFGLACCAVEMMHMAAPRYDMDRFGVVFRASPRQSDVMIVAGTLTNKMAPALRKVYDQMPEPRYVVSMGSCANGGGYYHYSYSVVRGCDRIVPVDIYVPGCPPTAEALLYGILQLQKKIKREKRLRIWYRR
T1 sequence (P25708 21-464 partner): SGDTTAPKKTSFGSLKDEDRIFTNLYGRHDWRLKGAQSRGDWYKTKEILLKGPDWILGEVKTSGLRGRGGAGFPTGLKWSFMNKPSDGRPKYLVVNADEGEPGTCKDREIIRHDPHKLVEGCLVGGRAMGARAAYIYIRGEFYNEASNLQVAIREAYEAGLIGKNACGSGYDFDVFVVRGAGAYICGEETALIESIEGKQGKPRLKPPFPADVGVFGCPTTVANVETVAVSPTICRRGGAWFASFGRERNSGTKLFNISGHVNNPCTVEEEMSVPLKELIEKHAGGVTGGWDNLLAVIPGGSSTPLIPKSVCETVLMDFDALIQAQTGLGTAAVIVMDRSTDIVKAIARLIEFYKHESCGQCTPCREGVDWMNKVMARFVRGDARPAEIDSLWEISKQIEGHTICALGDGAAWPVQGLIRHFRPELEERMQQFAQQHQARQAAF
T1 sequence (P15690 24-727 partner): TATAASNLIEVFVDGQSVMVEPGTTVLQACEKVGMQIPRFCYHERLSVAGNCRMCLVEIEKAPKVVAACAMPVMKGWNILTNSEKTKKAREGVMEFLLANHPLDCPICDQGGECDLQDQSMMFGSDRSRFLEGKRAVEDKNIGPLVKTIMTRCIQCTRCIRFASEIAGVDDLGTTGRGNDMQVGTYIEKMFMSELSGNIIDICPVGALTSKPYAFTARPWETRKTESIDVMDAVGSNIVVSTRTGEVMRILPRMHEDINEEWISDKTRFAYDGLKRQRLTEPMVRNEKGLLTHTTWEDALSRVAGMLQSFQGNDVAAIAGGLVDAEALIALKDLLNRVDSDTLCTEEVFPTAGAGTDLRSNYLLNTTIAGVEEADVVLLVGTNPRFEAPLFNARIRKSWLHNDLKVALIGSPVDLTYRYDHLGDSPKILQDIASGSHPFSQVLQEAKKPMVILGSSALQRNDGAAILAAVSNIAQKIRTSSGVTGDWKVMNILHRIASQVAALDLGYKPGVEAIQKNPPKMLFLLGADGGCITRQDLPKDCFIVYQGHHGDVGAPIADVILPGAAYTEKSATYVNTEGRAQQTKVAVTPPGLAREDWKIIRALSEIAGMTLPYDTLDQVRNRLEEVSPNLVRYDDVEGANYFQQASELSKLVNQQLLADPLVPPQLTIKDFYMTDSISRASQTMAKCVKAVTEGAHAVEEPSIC

[2] = biological target: T2, AOX (alternative oxidase) (Trypanosoma brucei, UniProt Q26710); assay: NADH:O2 oxidoreduction of SMPs with added purified AOX, cyanide-insensitive rate; details: 300 or 500 nM ascofuranone, 0.1 mg AOX per mg SMP, 200 μM NADH, 400 μM NaCN (500 nM trace) or gramicidin (300 nM), pH 7.5, 32 °C
T2 construct: expressed in E. coli FN102 (hemA deficient), purified in DDM and added to membranes
T2 sequence (Q26710 25-329): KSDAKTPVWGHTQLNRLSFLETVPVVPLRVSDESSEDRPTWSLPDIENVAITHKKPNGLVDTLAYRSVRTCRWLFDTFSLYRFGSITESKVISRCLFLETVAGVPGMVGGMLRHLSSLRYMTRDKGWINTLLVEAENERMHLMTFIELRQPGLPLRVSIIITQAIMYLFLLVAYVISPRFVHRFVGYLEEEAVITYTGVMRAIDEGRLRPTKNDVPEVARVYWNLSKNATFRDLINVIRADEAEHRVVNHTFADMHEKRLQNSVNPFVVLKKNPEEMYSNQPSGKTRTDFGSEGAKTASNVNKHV

[3] = biological target: T2, AOX (alternative oxidase); assay: NADH:O2 oxidoreduction via complex I with AOX added to SMPs or CI-only proteoliposomes; details: quinol produced by complex I from endogenous ubiquinone or ubiquinone-10 in proteoliposomes, pH 7.5, 32 °C

| Structure (SMILES) | IC50 [1] [nM] | NADH:O2 oxidoreduction of SMPs with added purified AOX, cyanide-insensitive rate [2] | NADH:O2 oxidoreduction via complex I with AOX added to SMPs or CI-only proteolip [3] |
| --- | --- | --- | --- |
| C/C(=C\Cc1c(O)c(Cl)c(C)c(C=O)c1O)CC/C=C(\C)[C@@H]1CC(=O)C(C)(C)O1 [ascofuranone] | 440 ± 40 | AOX-catalyzed quinol oxidation is insensitive to cyanide |  |
| COc1c(O)c(C)c(C/C=C(\C)CC/C=C(\C)CC/C=C(\C)CC/C=C(\C)CC/C=C(\C)CC/C=C(\C)CC/C=C(\C)CC/C=C(\C)CC/C=C(\C)CCC=C(C)C)c(O)c1OC [quinol] |  |  | also observed in synthetic, CI-only proteoliposomes containing ubiquinone-10 |
